In US10081634B2, “Heterocyclic compound” (Daewoong Pharmaceutical Co., Ltd., priority 2014, dated 2018):
Where a name gives a salt, the structure may show the parent alone.

These molecules were tested against T1, PRS (prolyl-tRNA synthetase) (Homo sapiens, UniProt P07814) (assay: In vitro PRS enzyme activity inhibition experiment ([3H]proline, liquid scintillation)). Conditions: purified PRS protein subcloned from EPRS cDNA; 37° C., 5 to 10 minutes; read-out: PRS IC50.
T1 construct: the portion corresponding to PRS in cDNA of EPRS was subcloned; made in house
T1 sequence (P07814 1007-1512 limits assumed): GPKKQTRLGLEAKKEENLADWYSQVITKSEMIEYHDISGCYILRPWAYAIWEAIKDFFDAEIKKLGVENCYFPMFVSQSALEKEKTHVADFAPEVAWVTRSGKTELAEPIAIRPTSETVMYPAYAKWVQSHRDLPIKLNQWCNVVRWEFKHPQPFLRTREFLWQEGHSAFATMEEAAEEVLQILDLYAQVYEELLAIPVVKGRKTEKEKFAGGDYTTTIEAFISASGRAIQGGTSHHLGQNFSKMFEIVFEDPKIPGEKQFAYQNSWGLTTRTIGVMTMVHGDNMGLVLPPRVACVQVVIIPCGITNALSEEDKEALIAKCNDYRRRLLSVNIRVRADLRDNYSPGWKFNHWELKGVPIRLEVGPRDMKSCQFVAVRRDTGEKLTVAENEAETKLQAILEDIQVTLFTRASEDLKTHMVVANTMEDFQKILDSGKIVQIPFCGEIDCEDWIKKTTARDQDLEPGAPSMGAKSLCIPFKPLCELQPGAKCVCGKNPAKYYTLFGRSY
Assay type: biochemical
Procedure: In order to confirm the biological activities of the compounds prepared in Examples, % inhibition or IC50 values of PRS enzyme ([…]) activities were calculated.
Specifically, the portion corresponding to PRS in cDNA of EPRS was subcloned, and the obtained high-purity PRS protein was purified and used in the experiment. The compounds (1 μM) prepared in Examples were added into the reaction buffer (20 mM KPO4 (pH 7.4), 6 mM MgAc, 5 mM ATP, […] tRNA, 0.5 mM DTT, 20 mCi[^3H]proline (1 mCi/mL)) and allowed to react at 37° C. for 5 to 10 minutes. The reaction was terminated with 3M paper that was previously dried by addition of 5% TCA. The radioactivity was measured using a liquid scintillation counter.
IC50 values of the respective compounds were calculated and analyzed using Microsoft Excel or Sigma Plot 8.0. In Table 1, the results are divided into A, B and C according to the range of IC50. The case where the derived IC50 is 100 nM or less is represented by “A”, the case where the IC50 is 100 to 500 nM is represented by “B”, and the case where the IC50 is 500 nM or higher is represented by “C”.

| SMILES | IC50 [µM] |
| --- | --- |
| Cc1c(Br)ccc2c1ncn2CC(O)(C[C@H]1NCCC[C@@H]1O)C(F)(F)F (stereo partly drawn) [Example 85, (2R,3S)-2-(2-((5-bromo-4-methyl-1H-benzo[d]imidazol-1-yl)methyl)-3,3,3-trifluoro-2-hydroxypropyl)piperidin-3-ol] | > 0.5 |
| Cc1nc2c(F)c(F)ccc2n1CC(=O)C[C@H]1NCCC[C@@H]1O [Example 47, 1-(4,5-difluoro-2-methyl-1H-benzo[d]imidazol-1-yl)-3-((2R,3S)-3-hydroxypiperidin-2-yl)propan-2-one] | > 0.5 |
| Cc1c(Cl)cnc2c1ncn2CC(O)C[C@H]1NCCC[C@@H]1O (stereo partly drawn) [Example 77, (2R,3S)-2-(3-(6-chloro-7-methyl-3H-imidazo[4,5-b]pyridin-3-yl)-2-hydroxypropyl)piperidin-3-ol] | > 0.5 |
| Cc1ccc2c(ncn2CC(O)C[C@H]2NCCC[C@@H]2O)c1Br (stereo partly drawn) [Example 73, (2R,3S)-2-(3-(4-bromo-5-methyl-1H-benzo[d]imidazol-1-yl)-2-hydroxypropyl)piperidin-3-ol] | > 0.5 |
| Cc1nc2ncccc2n1CC(=O)C[C@H]1NCCC[C@@H]1O [Example 49, 1-((2R,3S)-3-hydroxypiperidin-2-yl)-3-(2-methyl-1H-imidazo[4,5-b]pyridin-1-yl)propan-2-one] | > 0.5 |
| OC(C[C@H]1NCCC[C@@H]1O)Cn1cnc2c(Cl)c(Cl)ccc21 (stereo partly drawn) [Example 75, (2R,3S)-2-(3-(4,5-dichloro-1H-benzo[d]imidazol-1-yl)-2-hydroxypropyl)piperidin-3-ol] | > 0.5 |
| O=C(C[C@H]1NCCC[C@@H]1O)Cn1ccc2cc(Cl)cnc21 [Example 91, 1-(5-chloro-1H-pyrrolo[2,3-b]pyridin-1-yl)-3-((2R,3S)-3-hydroxypiperidin-2-yl)propan-2-one] | 0.1 to 0.5 |
| O=C(C[C@H]1NCCC[C@@H]1O)Cn1ncc2cc(Cl)cnc21 [Example 98, 1-(5-chloro-1H-pyrazolo[3,4-b]pyridin-1-yl)-3-((2R,3S)-3-hydroxypiperidin-2-yl)propan-2-one] | > 0.5 |
| O=C(C[C@H]1NCCC[C@@H]1O)Cn1cnc2c(Cl)ncnc21 [Example 44, 1-(6-chloro-9H-purin-9-yl)-3-((2R,3S)-3-hydroxypiperidin-2-yl)propan-2-one hydrochloride salt] | > 0.5 |
| O=C(C[C@H]1NCCC[C@@H]1O)Cn1c(CCO)nc2ccc(F)cc21 [Example 53, 1-(6-fluoro-2-(2-hydroxyethyl)-1H-benzo[d]imidazol-1-yl)-3-((2R,3S)-3-hydroxypiperidin-2-yl)propan-2-one] | > 0.5 |
| O/N=C(/C[C@H]1NCCC[C@@H]1O)Cn1cnc2ncc(Br)cc21 [Example 66, 1-(6-bromo-1H-imidazo[4,5-b]pyridin-1-yl)-3-((2R,3S)-3-hydroxypiperidin-2-yl)propan-2-one oxime] | > 0.5 |
| O=C(C[C@H]1NCCC[C@@H]1O)Cn1ncc2cc(Cl)ccc21 [Example 96, 1-(5-chloro-1H-indazol-1-yl)-3-((2R,3S)-3-hydroxypiperidin-2-yl)propan-2-one] | > 0.5 |
| OCc1nc2cc(Cl)c(Cl)cc2n1C/C(C[C@H]1NCCC[C@@H]1O)=N/O [Example 65, 1-(5,6-dichloro-2-(hydroxymethyl)-1H-benzo[d]imidazol-1-yl)-3-((2R,3S)-3-hydroxypiperidin-2-yl)propan-2-one oxime] | > 0.5 |
| OC(C[C@H]1NCCC[C@@H]1O)Cn1cnc2c(F)c(Br)ccc21 (stereo partly drawn) [Example 74, (2R,3S)-2-(3-(5-bromo-4-fluoro-1H-benzo[d]imidazol-1-yl)-2-hydroxypropyl)piperidin-3-ol] | > 0.5 |
| O=C(C[C@H]1NCCC[C@@H]1O)Cn1cnc2nc(Br)ccc21 [Example 29, 1-(5-bromo-1H-imidazo[4,5-b]pyridin-1-yl)-3-((2R,3S)-3-hydroxypiperidin-2-yl)propan-2-one] | > 0.5 |
| O=C(C[C@H]1NCCC[C@@H]1O)Cn1cnc2cccnc21 [Example 34, 1-((2R,3S)-3-hydroxypiperidin-2-yl)-3-(3H-imidazo[4,5-b]pyridin-3-yl)propan-2-one] | 0.1 to 0.5 |

| SMILES | IC50 [µM] |
| --- | --- |
| C[C@@H](O)c1nc2ccccc2n1CC(=O)C[C@H]1NCCC[C@@H]1O [Example 54, 1-(2-((R)-1-hydroxyethyl)-1H-benzo[d]imidazol-1-yl)-3-((2R,3S)-3-hydroxypiperidin-2-yl)propan-2-one] | > 0.5 |
| Cc1c(Cl)ccc2c1ncn2CC(O)C[C@H]1NCCC[C@@H]1O (stereo partly drawn) [Example 76, (2R,3S)-2-(3-(5-chloro-4-methyl-1H-benzo[d]imidazol-1-yl)-2-hydroxypropyl)piperidin-3-ol] | > 0.5 |
| OC(C[C@H]1NCCC[C@@H]1O)Cn1cnc2c(Cl)c(Br)cnc21 (stereo partly drawn) [Example 79, (2R,3S)-2-(3-(6-bromo-7-chloro-3H-imidazo[4,5-b]pyridin-3-yl)-2-hydroxypropyl)piperidin-3-ol] | 0.1 to 0.5 |
| O=C(C[C@H]1NCCC[C@@H]1O)Cn1c(CO)nc2ncccc21 [Example 68, 1-(2-(hydroxymethyl)-1H-imidazo[4,5-b]pyridin-1-yl)-3-((2R,3S)-3-hydroxypiperidin-2-yl)propan-2-one] | 0.1 to 0.5 |
| CNC(C[C@H]1NCCC[C@@H]1O)Cn1cnc2cc(Cl)c(Cl)cc21 (stereo partly drawn) [Example 86, (2R,3S)-2-(3-(5,6-dichloro-1H-benzo[d]imidazol-1-yl)-2-(methylamino)propyl)piperidin-3-ol] | > 0.5 |
| CO/N=C(/C[C@H]1NCCC[C@@H]1O)Cn1cnc2cc(Cl)c(Cl)cc21 [Example 67, 1-(5,6-dichloro-1H-benzo[d]imidazol-1-yl)-3-((2R,3S)-3-hydroxypiperidin-2-yl)propan-2-one O-methyl oxime] | > 0.5 |
| COCc1nc2cc(Cl)c(Cl)cc2n1CC(=O)C[C@H]1NCCC[C@@H]1O [Example 63, 1-(5,6-dichloro-2-(methoxymethyl)-1H-benzo[d]imidazol-1-yl)-3-((2R,3S)-3-hydroxypiperidin-2-yl)propan-2-one] | > 0.5 |
| O=C(C[C@H]1NCCC[C@@H]1O)Cn1cnc2cc(C(=O)O)ncc21 [Example 43, 3-(3-((2R,3S)-3-hydroxypiperidin-2-yl)-2-oxopropyl)-3H-imidazo[4,5-c]pyridine-6-carboxylic acid hydrochloride salt] | > 0.5 |
| Cc1ccc2c(cnn2CC(=O)C[C@H]2NCCC[C@@H]2O)c1Br [Example 97, 1-(4-bromo-5-methyl-1H-indazol-1-yl)-3-((2R,3S)-3-hydroxypiperidin-2-yl)propan-2-one] | 0.1 to 0.5 |
| O/N=C(/C[C@H]1NCCC[C@@H]1O)Cn1cnc2cc(Cl)c(Cl)cc21 [Example 64, 1-(5,6-dichloro-1H-benzo[d]imidazol-1-yl)-3-((2R,3S)-3-hydroxypiperidin-2-yl)propan-2-one oxime] | > 0.5 |
| O=C(C[C@H]1NCCC[C@@H]1O)Cn1cnc2c(Cl)cc(Cl)nc21 [Example 41, 1-(5,7-dichloro-3H-imidazo[4,5-b]pyridin-3-yl)-3-((2R,3S)-3-hydroxypiperidin-2-yl)propan-2-one] | < 0.1 |
| C[C@H](O)c1nc2ccccc2n1CC(=O)C[C@H]1NCCC[C@@H]1O [Example 55, 1-(2-((S)-1-hydroxyethyl)-1H-benzo[d]imidazol-1-yl)-3-((2R,3S)-3-hydroxypiperidin-2-yl)propan-2-one] | > 0.5 |
| O=C(C[C@H]1NCCC[C@@H]1O)Cn1cnc2ncc(Br)cc21 [Example 31, 1-(6-bromo-1H-imidazo[4,5-b]pyridin-1-yl)-3-((2R,3S)-3-hydroxypiperidin-2-yl)propan-2-one] | > 0.5 |
| O=C(C[C@H]1NCCC[C@@H]1O)Cn1cnc2c1CCCC2 [Example 45, 1-((2R,3S)-3-hydroxypiperidin-2-yl)-3-(4,5,6,7-tetrahydro-1H-benzo[d]imidazol-1-yl)propan-2-one] | 0.1 to 0.5 |
| OC(C[C@H]1NCCC[C@@H]1O)Cn1cnc2c(C(F)(F)F)c(Br)ccc21 (stereo partly drawn) [Example 72, (2R,3S)-2-(3-(5-bromo-4-(trifluoromethyl)-1H-benzo[d]imidazol-1-yl)-2-hydroxypropyl)piperidin-3-ol] | > 0.5 |
